Laboratory results: patent US20090075978A1, “SUBSTITUTED PROPIOLIC ACID AMIDES AND THEIR USE FOR PRODUCING DRUGS” (Grunenthal GmbH, priority 2005, published 2009)

target: T1, mGluR5 receptor (pig) (Sus scrofa, UniProt I3LUI7); test: [3H]-MPEP binding in the mGluR5 receptor binding assay (pig brain homogenate); details: 10 μM test compound; 5 nM [3H]-MPEP; 450 μg protein from pig brain homogenate; 60 min, room temperature
T1 construct: 450 μg of protein from brain homogenate is incubated; from tissue; host or cells: pig brain hemispheres without medulla, cerebellum and pons
T1 sequence (I3LUI7 19-1212): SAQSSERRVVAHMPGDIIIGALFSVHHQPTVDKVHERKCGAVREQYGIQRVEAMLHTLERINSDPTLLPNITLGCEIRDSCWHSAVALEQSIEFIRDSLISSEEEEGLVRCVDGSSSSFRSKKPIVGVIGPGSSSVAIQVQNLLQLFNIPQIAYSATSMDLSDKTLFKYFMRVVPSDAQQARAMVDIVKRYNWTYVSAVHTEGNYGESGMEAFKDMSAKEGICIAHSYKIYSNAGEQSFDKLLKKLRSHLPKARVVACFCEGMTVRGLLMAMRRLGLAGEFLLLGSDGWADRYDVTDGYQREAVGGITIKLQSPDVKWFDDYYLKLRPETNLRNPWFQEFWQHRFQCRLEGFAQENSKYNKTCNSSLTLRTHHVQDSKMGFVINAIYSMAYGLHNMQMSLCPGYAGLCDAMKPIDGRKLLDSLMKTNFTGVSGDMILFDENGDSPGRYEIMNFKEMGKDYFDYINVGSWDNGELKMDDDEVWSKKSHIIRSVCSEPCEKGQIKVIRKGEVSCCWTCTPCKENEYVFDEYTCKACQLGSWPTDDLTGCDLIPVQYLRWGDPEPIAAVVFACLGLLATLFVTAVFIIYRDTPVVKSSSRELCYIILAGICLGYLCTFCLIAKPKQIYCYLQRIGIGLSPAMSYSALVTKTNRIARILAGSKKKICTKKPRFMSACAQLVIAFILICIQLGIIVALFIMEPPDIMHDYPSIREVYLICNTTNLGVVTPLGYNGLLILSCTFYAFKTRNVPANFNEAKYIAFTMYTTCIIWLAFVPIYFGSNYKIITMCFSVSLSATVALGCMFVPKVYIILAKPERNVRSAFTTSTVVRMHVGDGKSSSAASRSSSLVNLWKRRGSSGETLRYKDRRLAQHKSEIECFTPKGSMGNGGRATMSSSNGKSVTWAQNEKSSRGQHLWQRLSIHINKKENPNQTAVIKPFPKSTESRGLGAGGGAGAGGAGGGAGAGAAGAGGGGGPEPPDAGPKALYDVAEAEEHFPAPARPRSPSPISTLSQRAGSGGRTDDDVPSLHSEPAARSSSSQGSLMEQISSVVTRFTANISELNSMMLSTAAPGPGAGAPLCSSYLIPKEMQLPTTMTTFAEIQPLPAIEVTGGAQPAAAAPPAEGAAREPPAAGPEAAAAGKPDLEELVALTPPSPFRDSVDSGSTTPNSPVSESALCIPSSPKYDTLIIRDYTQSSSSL
Protocol: I. Method for Determining the Inhibition of [^3H]-MPEP Binding in the mGluR5 Receptor Binding Assay
Pig brain homogenate is produced by homogenisation (Polytron Pt 3000, Kinematica AG, 10,000 revolutions per minute for 90 seconds) of pig brain hemispheres without medulla, cerebellum and pons in a buffer of pH 8.0 (30 mM Hepes, Sigma, order number H3375+1 tablet Complete Roche Diagnostics, order number 1836145 made up to 100 ml) in a ratio of 1:20 (brain weight/volume) and differential centrifugation at 900×g and 40,000×g. 450 μg of protein from brain homogenate is incubated in each case in 250 μl incubation batches in 96-well microtitre plates with 5 nM ^3[H]-MPEP (Tocris, order number R1212) (MPEP=[…]) and the compounds to be investigated ([…]) in the buffer (as above) at room temperature for 60 min.
The batches are then filtered with the assistance of a Brandel Cell Harvester (Brandel, Robotic 9600 model) on Unifilter plates with glass filter mats (Perkin Elmer, order number 6005177) and then washed 3 times with buffer (as above) using 250 μl per sample. The filter plates are then dried for 60 min at 55° C. Then 30 μl of Ultima Gold™ scintillating material (Packard BioScience, order number 6013159) is added per well and after 3 hours the samples are measured using the β counter (Microbeta, Perkin Elmer). Nonspecific binding is determined by the addition of 10 μM MPEP (Tocris, order number 1212).

Row | inhibition at 10 µM | SMILES | mGluR5 receptor (pig) (10 μM) Inhibition (%)
1 |  | Cc1cccc(C#CC(=O)N2CCc3ccccc3C2)c1 [Example 51, 2-(3-(3-tolyl)-propiolyl)-1,2,3,4-tetrahydro-isoquinoline] | 103%
2 |  | N#Cc1cccc(C#CC(=O)N2CCc3ccccc3C2)c1 [Example 77, 2-(3-(3-cyano-phenyl)-propiolyl)-1,2,3,4-tetrahydro-isoquinoline] | 90%
3 |  | CC1Cc2ccccc2N1C(=O)C#Cc1ccc(F)cc1F (stereo not drawn) [Example 33, 1-(3-(2,4-difluorophenyl)-propiolyl)-2-methyl-indoline] | 27%
4 |  | CC1Cc2ccccc2N1C(=O)C#Cc1ccccc1 (stereo not drawn) [Example 44, 1-(3-phenyl-propiolyl)-2-methyl-indoline] | 39%
5 |  | Cc1ccc(C#CC(=O)N2c3ccccc3CC2C)c(C)c1 (stereo not drawn) [Example 63, 1-(3-(2,4-dimethylphenyl)-propiolyl)-2-methyl-indoline] | 34%
6 |  | O=C(C#Cc1cccs1)N1CCc2ccccc2C1 [Example 55, 2-(3-(2-thienyl)-propiolyl)-1,2,3,4-tetrahydro-isoquinoline] | 86%
7 |  | Cc1ccc(C#CC(=O)N2c3ccccc3CC2C)cc1 (stereo not drawn) [Example 40, 1-(3-(4-tolyl)-propiolyl)-2-methyl-indoline] | 34%
8 |  | CC1Cc2ccccc2N1C(=O)C#Cc1ccc(Cl)cc1Cl (stereo not drawn) [Example 50, 1-(3-(2,4-dichlorophenyl)-propiolyl)-2-methyl-indoline] | 16%
9 | 16% | O=C(C#Cc1ccccc1)N1CCn2cnnc2C1 [Example 10, 7-(3-phenyl-propiolyl)-5,6,7,8-tetrahydro-[1,2,4]triazolo[4,3-a]pyrazine] | 
10 |  | COc1ccc(C#CC(=O)N2CCc3ccccc3C2)cc1 [Example 53, 2-(3-(4-methoxyphenyl)-propiolyl)-1,2,3,4-tetrahydro-isoquinoline] | 24%
11 |  | Cc1cc(C#CC(=O)N2CCc3ccccc3C2)ccc1F [Example 35, 2-(3-(4-fluoro-3-methylphenyl)-propiolyl)-1,2,3,4-tetrahydro-isoquinoline] | 77%

same assay, conditions: pig brain homogenate; 5 nM [3H]-MPEP

Row | IC50 | SMILES
12 | 1750 nM | O=C(C#Cc1ccccc1)N1CCCc2ccccc21 [Example 2, 1-(3-phenyl-propiolyl)-1,2,3,4-tetrahydro-quinoline]
13 | 240 nM | COc1ccc2c(c1)CCN(C(=O)C#Cc1cccc(Cl)c1)C2 [Example 17, 2-(3-(3-chlorophenyl)-propiolyl)-6-methoxy-1,2,3,4-tetrahydro-isoquinoline]
14 | 1820 nM | O=C(C#Cc1ccccc1)N1Cc2ccccc2C1 [Example 6, 2-(3-phenyl-propiolyl)-2,3-dihydro-isoindole]
15 | 320 nM | O=C(C#Cc1cccc(Cl)c1)N1CCn2ccnc2C1 [Example 23, 7-(3-(3-chlorophenyl)-propiolyl)-5,6,7,8-tetrahydroimidazo[1,2-a]pyrazine]
16 | 8570 nM | O=C(C#Cc1ccccn1)N1CCc2ccccc2C1 [Example 7, 2-(3-pyrid-2-yl-propiolyl)-1,2,3,4-tetrahydro-isoquinoline]
17 | 3550 nM | Cc1noc2c1CN(C(=O)C#Cc1ccccc1)CC2 [Example 8, 3-methyl-5-(3-phenyl-propiolyl)-4,5,6,7-tetrahydro-isoxazolo[4,5-c]pyridine]
18 | 4.5 nM | Cc1cccc2c1CN(C(=O)C#Cc1cccc(Cl)c1)CC2 [Example 24, 2-(3-(3-chlorophenyl)-propiolyl)-8-methyl-1,2,3,4-tetrahydro-isoquinoline]
19 | 110 nM | O=C(C#Cc1cccc(Cl)c1)N1CCCc2ccccc2C1 [Example 21, 2-(3-(3-chlorophenyl)-propiolyl)-2,3,4,5-tetrahydro-1H-benzo[c]azepine]
20 | 2540 nM | O=C(C#Cc1cccc(Cl)c1)N1CCc2cc(O)c(O)cc2C1 [Example 13, 2-(3-(3-chlorophenyl)-propiolyl)-7,6-dihydroxy-1,2,3,4-tetrahydro-isoquinoline]
21 | 87 nM | O=C(C#Cc1cccc(Cl)c1)N1CCc2ccc(O)cc2C1 [Example 28]
